In patent publication US20220170940A1, “BIOMARKER WITH THERAPEUTIC IMPLICATIONS FOR PERITONEAL CARCINOMATOSIS” (SINGAPORE HEALTH SERVICES PTE LTD, priority 2019, published 2022):

Legend:
[1] = test system: Colo-205 cells; experiment: In vitro drug treatment, CellTitreGlo proliferation of cell-free ascites-treated cells; type: cell-based, Human; details: 5% cell-free ascites of PPA, CAP, APA groups or FBS control, 72 hours
Method: A total of 5,000 cells/wells were seeded in 96-well plates and were grown for 24 hours in serum-free RPMI medium supplemented with 5% cell-free ascites or complete media, and then treated with various concentrations of TM5441 (PAI-1 inhibitor), Tiplaxtinin (PAI-1 inhibitor), Napabucasin (STAT3 inhibitor), BEZ235 (dual PI3K/mTOR inhibitor) and Mitomycin C (chemotherapeutic agent used in hyperthermic intraperitoneal chemotherapy (HIPEC)) for 72 hours. Cell proliferation was assessed using CellTitreGlo assay (Promega, Madison, US). These experiments were performed in triplicates and were repeated at least 3 times.

[2] = test system: Colo-205 cells; experiment: In vivo PC cell line mouse model drug treatment (ascites groups); design: species or system BALB/c nude mice; details: PPA cell-free ascites (PC085)-treated mice; 1.75 mM TM5441 i.p. every 3 days for 21 days; n=5 mice/group
Method: To determine the efficacy of PAI-1 inhibition in different susceptibility ascites groups in vivo, 5×10^6 of Colo-205 cells were co-injected with cell-free ascites representative of PAI-1 paracrine addicted (PPA) group, co-activators predominant (CAP) group or foetal bovine serum (FBS) into abdominal cavity of 6- to 8-week-old BALB/c nude mice (female, n=5 mice/group) and treated with 1.75 mM TM5441 administered intraperitoneally. Ascites and drug treatment were performed by injecting 400 μL of 5% cell-free ascites or 10% foetal bovine serum (FBS) with TM5441 intraperitoneally every 3 days for a duration of 21 days. After 3 weeks, the mice were sacrificed and tumour burden was quantified based on a modified peritoneal carcinomatosis index (PCI) score and presented as total peritoneal carcinomatosis index (PCI) score. Total peritoneal carcinomatosis index (PCI) score was calculated based on the sum of score for each region and ranges from 0 to 39.

[3] = test system: IL6-JAK-STAT3 signalling pathway; experiment: Gene expression profiling (RNA microarray, GSEA) upon PAI-1 inhibition; type: cell-based, Human; details: Colo-205 cells, PPA cell-free ascites (PC085), 27.25 μM TM5441 vs DMSO, 24 hours
Method: To assess signalling pathways affected by PAI-1 inhibition, Colo-205 cells were treated with cell-free ascites representative of PAI-1 paracrine addicted (PPA) group, co-activators predominant (CAP) group or foetal bovine serum (FBS; control) in the presence of DMSO vehicle or 27.25 μM TM5441 for 24 hours. Total RNA was isolated using Qiagen Mini Kit (Qiagen, CA, USA), following the manufacturer's instructions. Gene expression profiling was performed using Affymetrix GeneChip Genome U133 Plus 2.0 microarray platform (Affymetrix, Santa Clara, Calif.) in accordance to manufacturer's protocols. Microarray data was uploaded into the free programming software R (R Foundation for Statistical Computing, Vienna, Austria) for processing and normalization. Gene Set Enrichment Analysis (GSEA) was used to assess enrichment of genes showing up- and down-regulation using GSEA graphical user interface (GUI) software (http://www.broadinstitute.org/gsea/).

[4] = test system: phospho-STAT3 (Tyr705); experiment: p-STAT3 (Y705) ELISA of cell-free ascites-treated cancer cells with TM5441; type: cell-based, Human; details: cells exposed to PPA cell-free ascites (PC085, PC383) versus CAP (PC249) and APA (PC010)
Method: Concentrations of PAI-1 (DSE100), IL6 (D6050), IL10 (D1000B), CCL2 (DCP00), MMP9 (DMP900), ANGPT1 (DANG10), TGFB1 (DB100B), and CXCL10 (DIP100) in cell-free ascites were quantified using human Quantikine ELISA kits from R&D Systems. Concentrations of POSTN (DY3548B) and CD44 (DY7045-05) in cell-free ascites were quantified using human DuoSet ELISA kits from R&D Systems. VSIG4 (ELH-VSIG4-1) concentration in cell-free ascites was quantified using ELISA from RayBiotech. All samples were performed with 2 technical replicates according to the manufacturers' instructions. Total STAT3 and phospho-STAT3 (Tyr705) were detected with ELISA (7305C and 7300C, Cell Signalling Technology, Massachusetts, US). Proteins were isolated from cell lysates of Colo-205 and SNU-C1 that were treated with 5% cell-free ascites for 24 hours. In all experiments, 25 μg of protein was used for total STAT3 and p-STAT3(Y705) ELISA following the manufacturer's instructions.

[5] = test system: Colo-205 cells; experiment: In vivo PC cell line mouse model, drug concentration and delivery method (i.p. vs oral); design: species or system BALB/c nude mice; details: PPA cell-free ascites (PC085); i.p. every 3 days up to 21 days; n=4 mice/group
Method: To determine the optimal drug concentration and drug delivery method, a total of 16 female BALB/c nude mice with the age of 6-8 weeks old were selected for the experiment. Each mouse was injected with 5×10^6 of Colo-205 cells intraperitoneally. The mice were divided into 4 groups and given the following treatments: (i) 5% cell-free ascites with 1% DMSO, (ii) 5% cell-free ascites with 1 mM TM5441, (iii and iv) 5% cell-free ascites with 2 mM TM5441. Treatment was performed by injecting 400 μL of 5% cell-free ascites with DMSO vehicle/drug intraperitoneally (i-iii) and orally (iv) every 3 days, up to 21 days. After 3 weeks, the mice were sacrificed and tumour burden was quantified based on a modified peritoneal carcinomatosis index (PCI) score and presented as total peritoneal carcinomatosis index (PCI) score. Total peritoneal carcinomatosis index (PCI) score was calculated based on the sum of score for each region and ranges from 0 to 39.

[6] = test system: patient-derived ascites-dependent xenograft (PDADX) tumours; experiment: Patient-derived ascites-dependent xenografts (PDADXs) drug treatment; type: in vivo, BALB/c nude mice; details: 2 mM TM5441 i.p. every 3 days for 21 days
Method: Ascites collected from patients with peritoneal carcinomatosis were centrifuged at 2000 g for 10 minutes to concentrate the cellular components and to separate the fluid component. 1 mL of cell pellet was resuspended with 1 mL of ascitic fluid and 400 μL of the mixture was implanted intraperitoneally into 6-week-old BALB/c nude mice (n=5 mice) to generate patient-derived ascites-dependent xenograft (PDADX) passage 0 (P0). For subsequent passages, patient-derived ascites-dependent xenograft (PDADX) tumours were diced into small pieces using scalpel blades and passed through an 18-G syringe needle. Diced tumours were resuspended with matched patient's ascites at 1:1 ratio and implanted intraperitoneally into 6-week-old BALB/c nude mice (n=10 mice).
Matched patient's cell-free ascites and its cellular components were used to generate patient-derived ascites-dependent xenografts (PDADXs) to better recapitulate peritoneal carcinomatosis patients. PAI-1 paracrine addicted (PPA) patient-derived ascites-dependent xenograft (PDADX) tumours (100 mg) were implanted into 16 female BALB/c nude mice intraperitoneally and co-activators predominant (CAP) patient-derived ascites-dependent xenograft (PDADX) tumours (100 mg) were implanted into 16 female BALB/c nude mice intraperitoneally. […] Tumour burden was quantified by weighing all visible tumours after mice were sacrificed.
Briefly, co-activators predominant (CAP) patient-derived ascites-dependent xenograft (PDADX) tumours (100 mg) were implanted into 16 female BALB/c nude mice intraperitoneally. […] Tumour burden was quantified by weighing all visible tumours after mice were sacrificed.

Compound: Cn1c(=O)n(-c2ccc(C(C)(C)C#N)cc2)c2c3cc(-c4cnc5ccccc5c4)ccc3ncc21 [BEZ235]
- Sensitivity of cell-free ascites-treated Colo-205 cells to inhibitor (dose-response, cell proliferation) [1]: ineffective

Compound: CO[C@@]12[C@H](COC(N)=O)C3=C(C(=O)C(C)=C(N)C3=O)N1C[C@@H]1N[C@@H]12 [Mitomycin C]
- Sensitivity of cell-free ascites-treated Colo-205 cells to inhibitor (dose-response, cell proliferation) [1]: ineffective

Compound: CC(=O)c1cc2c(o1)C(=O)c1ccccc1C2=O [Napabucasin]
- Sensitivity of cell-free ascites-treated Colo-205 cells to inhibitor (dose-response, cell proliferation) [1]: ineffective

Compound: O=C(COCC(=O)Nc1ccc(Cl)cc1C(=O)[O-])Nc1cccc(-c2ccoc2)c1.[Na+] [TM5441, 5-Chloro-2-[[2-[2-[[3-(3-furanyl)phenyl]amino]-2-oxoethoxy]acetyl]amino]benzoic acid sodium salt]
- Sensitivity of cell-free ascites-treated Colo-205 cells to inhibitor (dose-response, cell proliferation) [1]: PAI-1 paracrine addicted (PPA) (n=18) being the most sensitive to PAI-1 inhibition, followed by co-activators predominant (CAP) (n=59) and alternative pathways activation (APA) (n=17)
- Tumour burden (modified PCI score) [2]: significant reduction in tumour burden
- IL6-JAK-STAT3 signalling pathway regulation (GSEA) [3]: significantly down-regulated
- Concentration needed to suppress STAT3 activation (p-STAT3 ELISA) [4]: required a lower concentration of TM5441 to supress STAT3 activation
- Formation of peritoneal tumours (modified PCI score), intraperitoneal instillation [5]: effectively inhibited
- Tumour burden (weight of all visible tumours), PC249 PDADX with PPA cell-free ascites (PC383) ([6]; CAP PDADX (PC249) exposed to PC383 PPA ascites): became susceptible to PAI-1 inhibition
- Tumour burden (weight of all visible tumours), PC249 PDADX with matched cell-free ascites ([6]; CAP PDADX (PC249), matched CAP ascites): no reduction in tumour burden compared to vehicle control
- Tumour burden (weight of all visible tumours), PC383 PDADX with matched cell-free ascites ([6]; PPA PDADX (PC383), matched PPA ascites, n=4 mice/group): significantly superior inhibition of tumour growth compared to vehicle control

Compound: O=C(O)C(=O)c1cn(Cc2ccccc2)c2ccc(-c3ccc(OC(F)(F)F)cc3)cc12 [Tiplaxtinin, 2-(1-Benzyl-5-(4-(trifluoromethoxy)phenyl)-1H-indol-3-yl)oxoacetic acid]
- Sensitivity of cell-free ascites-treated Colo-205 cells to inhibitor (dose-response, cell proliferation) [1]: showed the same trend of differential response
